Measurements published in ChEMBL document CHEMBL3244392, “Synthesis and antiinflammatory activity of some 2-aryl-6-benzoxazoleacetic acid derivatives” (J Med Chem, 1977).

How the values were obtained:
[1] = Toxicity in po dosed rat; assay type: organism-based; conditions: in vivo
Rattus norvegicus [2] = experiment: Antiinflammatory activity in rat assessed as inhibition of carrageenan-induced paw edema at 50 mg/kg, po administered as two doses 3 and 0.5 hr prior to challenge measured 2.5 hrs post challenge; assay type: functional
Rattus norvegicus [3] = experiment: Antiinflammatory activity in rat assessed as inhibition of carrageenan-induced paw edema at 100 mg/kg, po administered as two doses 3 and 0.5 hr prior to challenge measured 2.5 hrs post challenge; assay type: functional
Rattus norvegicus [4] = experiment: Antiinflammatory activity in adrenalectomized rat assessed as inhibition of carrageenan-induced paw edema at 100 mg/kg, po administered as two doses 3 and 0.5 hr prior to challenge measured 2.5 hrs post challenge; assay type: functional
Rattus norvegicus [5] = experiment: Antiinflammatory activity in rat assessed as inhibition of carrageenan-induced paw edema at 25 mg/kg, po administered as two doses 3 and 0.5 hr prior to challenge measured 2.5 hrs post challenge; assay type: functional
Rattus norvegicus [6] = experiment: Antiinflammatory activity in adrenalectomized rat assessed as inhibition of carrageenan-induced paw edema at 25 mg/kg, po administered as two doses 3 and 0.5 hr prior to challenge measured 2.5 hrs post challenge; assay type: functional
Rattus norvegicus [7] = experiment: Antiinflammatory activity in adrenalectomized rat assessed as inhibition of carrageenan-induced paw edema at 50 mg/kg, po administered as two doses 3 and 0.5 hr prior to challenge measured 2.5 hrs post challenge; assay type: functional
Rattus norvegicus [8] = experiment: Antiinflammatory activity in adrenalectomized rat assessed as inhibition of carrageenan-induced paw edema administered orally 1 hr prior to challenge measured 2.5 hrs post challenge; assay type: functional; conditions: po
Rattus norvegicus [9] = experiment: Antiinflammatory activity in adrenalectomized rat assessed as inhibition of carrageenan-induced paw edema administered orally 1 hr prior to challenge measured 5 hrs post challenge; assay type: functional; conditions: po

CC(C(=O)O)c1ccc2nc(-c3ccc(F)cc3)oc2c1 (stereo not drawn)
LD50 [1]: 1200 mg/kg | inhibition in vivo at 50 mg/kg (Rattus norvegicus [2]): 48%

Cc1ccc2nc(-c3ccccc3)oc2c1
LD50 [1]: < 1600 mg/kg | inhibition in vivo at 50 mg/kg (Rattus norvegicus [2]): 10%

O=C(O)Cc1ccc2nc(-c3ccccc3)oc2c1
inhibition in vivo at 100 mg/kg (Rattus norvegicus [3]): 60% | LD50 [1]: 1200 mg/kg | inhibition in vivo at 100 mg/kg (Rattus norvegicus [4]): 50%

Cl.NCCc1ccc2nc(-c3ccccc3)oc2c1
inhibition in vivo at 25 mg/kg (Rattus norvegicus [5]): 59% | LD50 [1]: 300 mg/kg | inhibition in vivo at 25 mg/kg (Rattus norvegicus [6]): 0%

CCOC(=O)Cc1ccc2nc(-c3ccccc3)oc2c1
inhibition in vivo at 100 mg/kg (Rattus norvegicus [3]): 61% | LD50 [1]: 1200 mg/kg

OCCc1ccc2nc(-c3ccccc3)oc2c1
inhibition in vivo at 100 mg/kg (Rattus norvegicus [3]): 47% | LD50 [1]: > 1600 mg/kg

CC(CO)c1ccc2nc(-c3ccccc3)oc2c1 (stereo not drawn)
inhibition in vivo at 100 mg/kg (Rattus norvegicus [3]): 61% | LD50 [1]: 800 mg/kg

CC(C(=O)O)c1ccc2nc(-c3ccccc3)oc2c1 (stereo not drawn)
LD50 [1]: 600 mg/kg | inhibition in vivo at 50 mg/kg (Rattus norvegicus [2]): 60%

CC(C(=O)O)c1ccc2nc(-c3ccccc3Cl)oc2c1 (stereo not drawn)
inhibition in vivo at 50 mg/kg (Rattus norvegicus [7]): 58% | LD50 [1]: 1200 mg/kg | ED30 (Rattus norvegicus [8]): 1.98 mg/kg | inhibition in vivo at 50 mg/kg (Rattus norvegicus [2]): 41% | ED30 (Rattus norvegicus [9]): 23 mg/kg

CC(C(=O)O)c1ccc2nc(-c3ccc(Cl)cc3)oc2c1 (stereo not drawn)
LD50 [1]: 1200 mg/kg | ED30 (Rattus norvegicus [8]): 2.4 mg/kg | inhibition in vivo at 50 mg/kg (Rattus norvegicus [2]): 28% | ED30 (Rattus norvegicus [9]): 11 mg/kg

CC(C(=O)O)c1ccc2nc(-c3ccc(Cl)cc3Cl)oc2c1 (stereo not drawn)
inhibition in vivo at 25 mg/kg (Rattus norvegicus [5]): 49% | LD50 [1]: 300 mg/kg | inhibition in vivo at 25 mg/kg (Rattus norvegicus [6]): 56%

Cc1ccc(-c2nc3ccc(C(C)C(=O)O)cc3o2)cc1 (stereo not drawn)
LD50 [1]: 1200 mg/kg | inhibition in vivo at 50 mg/kg (Rattus norvegicus [2]): 43%

CC(CN)c1ccc2nc(-c3ccccc3)oc2c1.O=C(O)CCC(=O)O (stereo not drawn)
inhibition in vivo at 25 mg/kg (Rattus norvegicus [5]): 0% | LD50 [1]: 300 mg/kg

CC(C(=O)O)c1ccc2oc(-c3ccc(Cl)cc3)nc2c1 (stereo not drawn) [BENOXAPROFEN]
LD50 [1]: 800 mg/kg | ED30 (Rattus norvegicus [8]): 13.4 mg/kg | inhibition in vivo at 50 mg/kg (Rattus norvegicus [2]): 78% | ED30 (Rattus norvegicus [9]): 10.6 mg/kg

C[C@]12CCC(=O)C=C1CC[C@@H]1[C@@H]2[C@@H](O)C[C@@]2(C)[C@H]1CC[C@]2(O)C(=O)CO [HYDROCORTISONE]
inhibition in vivo at 50 mg/kg (Rattus norvegicus [2]): 42%

CCCCC1C(=O)N(c2ccccc2)N(c2ccccc2)C1=O [PHENYLBUTAZONE]
ED30 (Rattus norvegicus [8]): 23.8 mg/kg | inhibition in vivo at 100 mg/kg (Rattus norvegicus [4]): 60% | inhibition in vivo at 50 mg/kg (Rattus norvegicus [2]): 39% | ED30 (Rattus norvegicus [9]): 52.6 mg/kg
